Counter-ions that a name gives are not always drawn.
System: Saccharomyces cerevisiae ABC16-Green Monster
Settings: 18 h; 30 °C; YPD
Summary of the method: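 Drug-sensitive S. cerevisiae ABC16-Green Monster cells were grown to log phase in YPD and dispensed at 200 µl per well into 96-well plates. Cultures were treated in biological duplicate with eight 1:2 compound dilutions (final 0.1–150 μM), alongside untreated cultures, for 18 h at 30 °C, and OD600 was read at 0 h and 18 h. IC50 was obtained by variable-slope nonlinear regression of log(inhibitor) versus response in GraphPad Prism, using background-subtracted readings.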

| SMILES | IC50 growth inhibition [µM] |
| --- | --- |
| Cc1cc(Nc2ccc(OCc3ccccc3)cc2)nc2cc(O)ccc12 | 2.38 |
| C[C@H](c1ccc2c(c1)CCCC2)N(C)c1ncc2c(N)nc(N)nc2n1 | 30.5 |
| CC1COC(Cn2cncn2)(c2ccc(Oc3ccc(Cl)cc3)cc2Cl)O1 (stereo not drawn) | 39 |
| c1ccc(CSc2scnc2[P+](c2ccccc2)(c2ccccc2)c2ccccc2)cc1 [GNF-Pf-238] | 4.06 |
| N=C(N)c1ccc(OCCCCCOc2ccc(C(=N)N)cc2)cc1 | 83.8 |
| CC(C)Cn1c2c(c(O)c(C(=O)Nc3ncccc3O)c1=O)CCCC2 [CBR572] | 46.9 |
| C=C1CCC(O)CC1=CC=C1CCCC2(C)C1CCC2C(C)CCCC(C)(C)O (stereo not drawn) [Calcifediol] | > 150 |
| Cc1ccc(Cc2c(C)nn(-c3nc4ccccc4[nH]3)c2O)cc1 [CBR868] | 5.39 |
| CCOC(=O)c1c(NC(=O)c2c(F)c(F)c(F)c(F)c2F)sc(C(N)=O)c1C | 47.8 |
| CN(Cc1ccc(Cl)s1)C(=O)Cn1ncc(Br)c(Br)c1=O | 24.2 |
| N.N.O=C([O-])C1(C(=O)[O-])CCC1.[Pt+2] [Carboplatin] | > 75 |
| CCc1ccc(Nc2cc(C)c3ccc(O)cc3n2)cc1 | 2.09 |
| O=C(Nc1ccccc1)c1ccc(-c2cc3ccncc3cc2OC2CCNCC2)s1 | 44.8 |
| C=CC1(C)CC(=O)C2(O)C(C)(O1)C(OC(C)=O)C(O)C1C(C)(C)CCC(O)C12C (stereo not drawn) [Forskolin] | > 75 |
| Clc1ccccc1-c1nc([P+](c2ccccc2)(c2ccccc2)c2ccccc2)c(N2CCOCC2)o1 [GNF-PF-2863] | 8.55 |
| CN1CC(C(=O)NC2(C)OC3(O)C4CCCN4C(=O)C(Cc4ccccc4)N3C2=O)CC2c3cccc4[nH]cc(c34)CC21 (stereo not drawn) [Dihydroergotamine] | > 75 |
| CCC(=O)NC(c1ccccc1Cl)c1cc(Cl)c2cccnc2c1O (stereo not drawn) [GNF-Pf-5038] | 6.51 |
| CC(C)(C)c1ccc2c(c1)CN(Cc1ccc(Cl)cc1)CO2 | 14.3 |
| O=C(c1c[nH]c(-c2ccnc(N3CCCC3)c2)c1)c1ccccc1O | 60.6 |
| O=C(Nc1ccc(Cl)c(Cl)c1)Nc1ccc(Cl)c(Cl)c1 | 0.32 |
| CC(C)c1cc(NCc2ccccn2)n2ncc(-c3ccccc3)c2n1 | 0.45 |

| SMILES | IC50 growth inhibition [µM] |
| --- | --- |
| Nc1ccn(C2OC(CO)C(O)C2(F)F)c(=O)n1 (stereo not drawn) [Gemcitabine] | > 75 |
| CC(Oc1ccc(Cl)cc1Cl)c1nc(-c2ccc(NC(=O)c3cccs3)cc2)no1 (stereo not drawn) [GNF-Pf-2823] | 3.9 |
| CCCCCCCCCCCCCCCCCCOCC(COP(=O)([O-])OCC[N+](C)(C)C)OC (stereo not drawn) [Edelfosine] | 29.1 |
| CC(C)CC(NC(=O)C(Cc1ccccc1)NC(=O)c1cnccn1)B(O)O (stereo not drawn) [Bortezomib] | 46.2 |
| O=C(Nc1c(O)cccc1-c1nc2c(C(=O)O)cccc2o1)c1cc(-c2ccccc2)on1 | 38.7 |
| CCCCCN(C)CCC(O)(P(=O)([O-])O)P(=O)(O)O.[Na+] [Ibandronate] | > 75 |
| CCOC(=O)Nc1ccc(NCc2ccc(F)cc2)cc1N [Retigabine] | > 75 |
| COC1=CC(C)=CC(C)C(O)C(C)CC(C)=CC=CC(OC)C(C(C)C(O)C(C)C2(O)CC(O)C(C)C(C(C)C)O2)OC1=O (stereo not drawn) [Bafilomycin A1] | 0.164 |
| CNS(=O)(=O)c1ccc(C(=O)Nc2ccc(Nc3ccccc3)cc2)o1 | 92.5 |
| O=C(c1cccs1)N1CCN(c2ccc([N+](=O)[O-])c(NC3CC3)c2)CC1 [GNF-Pf-3455] | > 150 |
| OC(Cn1cncn1)(Cn1cncn1)c1ccc(F)cc1F [Fluconazole] | 3.14 |
| CC(=O)OCC1OC([S-])C(OC(C)=O)C(OC(C)=O)C1OC(C)=O.CCP(CC)CC (stereo not drawn) [Auranofin] | 27.4 |
| O=C(Nc1cccc(C(F)(F)F)c1)Nc1ncc([N+](=O)[O-])s1 | 52.4 |
| O=C([C@@H](c1ccc(Cl)cc1)c1cccnc1)N1CCN(c2ccc(C(F)(F)F)cc2)CC1 | 50 |
| COc1ccc2cc(CN(C)CC(=O)Nc3sccc3C(N)=O)ccc2c1 | 60.6 |
| CC(Oc1ccc(Cl)cc1Cl)c1nc(-c2ccc(NC(=O)c3ccco3)cc2)no1 (stereo not drawn) [GNF-Pf-3333] | 2.8 |
| O=C1CCc2ccc(OCCCCN3CCN(c4cccc(Cl)c4Cl)CC3)cc2N1 [Aripiprazole] | 9.31 |
| c1cc2c(cc1C1=NNC(=NC3CC3)SC1)CCCC2 | 50.8 |
| OCCNc1nc(Oc2ccc(-c3ccccc3)cc2)nc2ccccc12 | 21.7 |
| COC(=O)C1=C(C)NC(C)=C(C(=O)OCC(C)C)C1c1ccccc1[N+](=O)[O-] (stereo not drawn) [Nisoldipine] | 41 |
| Cc1nn(C)cc1C(C)Nc1nncc(-c2ccc(C(F)(F)F)cc2)n1 (stereo not drawn) | 44.9 |

| SMILES | IC50 growth inhibition [µM] |
| --- | --- |
| Cc1ccc(N/N=C/c2c3ccccc3cc3ccccc23)cc1Cl | 14 |
| CNC(=O)c1nn(C)c2c1C(C)(C)Cc1cnc(Nc3ccc(N4CCN(C)CC4)cc3)nc1-2 [milciclib maleate] | 84.1 |
| CCC1(O)C(=O)OCc2c1cc1n(c2=O)Cc2cc3ccccc3nc2-1 (stereo not drawn) [Camptothecin] | 1.61 |
| O=C(Nc1ccc(C(F)(F)F)c(C(F)(F)F)c1)c1cc(Cl)ccc1O | 5.64 |
| Cc1nn(C(C)(C)C)c(C)c1/C=N/OC(=O)Nc1ccc(Cl)cc1 | 39.1 |
| COc1ccc(C2c3ccc4ccccc4c3Oc3ncn(CCCN(C)C)c(=N)c32)cc1 (stereo not drawn) | 28.9 |
| C=CCn1c(C)cc(C(=O)CSc2nc3ccccc3o2)c1C | 11.2 |
| CN(CC=CC#CC(C)(C)C)Cc1cccc2ccccc12.Cl [Terbinafine] | 76.9 |
| OC1=C2C(=Nc3ccccc3SC2c2cccs2)c2ccccc21 (stereo not drawn) [GNF-Pf-5669] | > 150 |
| CCOc1ccc(C(=O)CN(C#N)C(=O)c2ccccc2)cc1 | 25 |
| CC[C@@]1(O)C[C@H](O[C@H]2C[C@H](N(C)C)[C@H](O[C@H]3C[C@H](O)[C@H](O[C@H]4CCC(=O)[C@H](C)O4)[C@H](C)O3)[C@H](C)O2)c2c(cc3c(c2O)C(=O)c2c(O)cccc2C3=O)[C@H]1C(=O)OC [Aclarubicin] | 4.79 |
| Cc1ccc2nc3ccccc3c(N3CCN(C(=O)c4ccccc4)CC3)c2c1 | 6.15 |
| COc1cccc(-n2nnnc2S(C)(=O)=O)c1 | 53.8 |
| CCN(CC)C(=S)SSC(=S)N(CC)CC [Disulfiram] | 52.9 |
| CC(C)Oc1cc(Nc2nc(N[C@@H](C)c3ccc(F)cc3)c(C#N)cc2F)[nH]n1 [AZD-6918] | > 75 |
| COc1ccc(-c2onc(C(F)(F)F)c2-c2ccc(Cl)cc2)c(O)c1 | 48.6 |
| O=C(C1CCCCC1)N1CC(=O)N2CCc3ccccc3C2C1 (stereo not drawn) [Praziquantal] | > 75 |
| CC1(COc2ccc(N3CCC(Oc4ccc(OC(F)(F)F)cc4)CC3)cc2)Cn2cc([N+](=O)[O-])nc2O1 (stereo not drawn) [Delamanid] | > 75 |
| CCN(CC)CCCC(C)Nc1ccnc2cc(Cl)ccc12 (stereo not drawn) [Chloroquine] | > 75 |
| Brc1ccc(Nc2nc3ccccc3nc2Nc2ccc(Br)cc2)cc1 | 2.31 |
| COc1ccc2nc(S(=O)Cc3ncc(C)c(OC)c3C)[nH]c2c1 (stereo not drawn) [Omeprazole] | > 75 |

| SMILES | IC50 growth inhibition [µM] |
| --- | --- |
| CC(=O)c1ccc(-c2ccc(C(=O)N3CCCc4ccccc43)o2)cc1 | 52.4 |
| Clc1ccc(COC(Cn2ccnc2)c2ccc(Cl)cc2Cl)c(Cl)c1 (stereo not drawn) [Miconazole] | 0.007 |
| CN(C(=O)c1cc2c(-c3cncnc3)cccc2[nH]1)c1ccccc1 | 26.3 |
| Cn1ccnc1CNCCS(=O)(=O)c1cccc(Nc2ccc(-c3cccc(F)c3)cn2)c1 | 50.5 |
| CCOC(=O)C1=C(C)NC(C)=C(C(=O)OC)C1c1cccc(Cl)c1Cl (stereo not drawn) [Felodipine] | 20.7 |
| CNC(=O)c1ccccc1Nc1nc(Nc2ccc3c(c2OC)CCC[C@H](N2CCN(CCO)CC2)C3)ncc1Cl | 37.7 |
| Cc1nc(-c2ccccn2)nc(N2CCC(Cc3ccccc3)C2)c1Cl (stereo not drawn) | 21 |
| O=C(O)[C@]1(Cc2cccc(Nc3nccs3)n2)CC[C@@H](Oc2cccc(Cl)c2F)CC1 [MK-5108] | > 75 |
| Cc1cc(NS(=O)(=O)c2ccc(Nc3nc(-c4ccc(Cl)c(Cl)c4)cs3)cc2)no1 [CBR410] | 4.87 |
| CC1(C)C2CCC(C2)C1(C)NC(=S)NN=Cc1ccccn1 (stereo not drawn) [GNF-Pf-5458] | 3.1 |
| Cc1ccc(-c2nc(CN(Cc3ccccn3)C(C)C)cs2)o1 | 12 |
| CON=C(C(=O)OC)c1ccccc1CON=C(C)c1cccc(C(F)(F)F)c1 [Trifloxystrobin] | > 75 |
| CC1(C)OB(O)c2cc(NC(=O)c3ccc(-n4cccn4)cc3Cl)ccc21 [AN7973] | 0.355 |
| CS(=O)(=O)CCNCc1ccc(-c2ccc3ncnc(Nc4ccc(OCc5cccc(F)c5)c(Cl)c4)c3c2)o1 [lapatinib] | 5.96 |
| CC(C)(C)c1ccc(C(=N)NOC(=O)c2sccc2Cl)cc1 | 8.34 |
| COc1ccccc1N=C1C(=O)c2ccccc2C(O)=C1N1CCCCC1 | 7.84 |
| O=P(O)(O)C(O)(Cn1ccnc1)P(=O)(O)O [Zoledronate] | > 75 |
| Cn1c(N)c(C(=O)CSc2nnc(-c3ccccc3)c(-c3ccccc3)n2)c(=O)n(C)c1=O | 22.9 |
| CCC1(O)C(=O)OCc2c1cc1n(c2=O)Cc2cc3c(CN(C)C)c(O)ccc3nc2-1 (stereo not drawn) [Topotecan] | > 75 |
| O=C1C=CC(=O)N1c1ccc(C2CCCCC2)cc1 | 1.69 |

Reference: the supplement of paper PMC8837787
